We go through 28 compounds from patent US12098145B2 (Libra Therapeutics, Inc., priority 2022, dated 2024).

The target in the assay is T1, TRPML1 (Homo sapiens, UniProt Q9GZU1).
T1 construct: expressed in transfected cells; host or cells: HEK T-REx cells stably expressing GCaMP6f and TRPML1
Briefly: Cellular TRPML1 assay (FLIPR, GCaMP6f calcium read-out). It counts as cell-based. Put shortly: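 HEK T-REx cells stably expressing TRPML1 and GCaMP6f, seeded 24 h before in Optimem + 0.5% FBS. After ~10 min pre-incubation at room temperature, compounds in Ca2+-free Tyrode's buffer were injected on FLIPR Tetra (final DMSO 0.5%). Calcium fluorescence kinetics followed for 300 s.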

[1] abbreviates: HEKT-REx/GCaMP6f/TRPML1 cells, FLIPR TETRA, kinetic response over 300 seconds, read-out: TRPML1 FLIPR pEC50 (converted).

Where two headings read alike, the source gives them in different places.

T1 sequence (Q9GZU1 whole entry): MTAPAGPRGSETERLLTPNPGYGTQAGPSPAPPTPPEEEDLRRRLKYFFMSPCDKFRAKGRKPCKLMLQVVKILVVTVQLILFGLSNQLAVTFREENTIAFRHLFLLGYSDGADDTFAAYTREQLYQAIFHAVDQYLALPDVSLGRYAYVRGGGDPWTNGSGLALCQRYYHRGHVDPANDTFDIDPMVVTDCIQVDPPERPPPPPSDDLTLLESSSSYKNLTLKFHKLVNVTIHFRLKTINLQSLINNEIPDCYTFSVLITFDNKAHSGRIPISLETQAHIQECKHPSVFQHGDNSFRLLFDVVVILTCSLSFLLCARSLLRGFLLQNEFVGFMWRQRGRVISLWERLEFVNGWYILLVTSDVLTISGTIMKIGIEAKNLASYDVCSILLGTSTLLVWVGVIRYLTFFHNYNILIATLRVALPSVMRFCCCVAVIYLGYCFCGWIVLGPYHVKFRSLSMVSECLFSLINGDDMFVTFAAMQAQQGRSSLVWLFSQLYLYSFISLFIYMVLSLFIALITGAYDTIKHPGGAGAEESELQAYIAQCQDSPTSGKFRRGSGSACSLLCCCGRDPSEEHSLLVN

Take `CCc1oc(-n2cccn2)nc1C(=O)Nc1cc(F)c(O[C@@H]2C[C@@H]3C[C@@H]3C2)c(F)c1` [Example 232, N-(4-(cis-bicyclo[3.1.0]hexan-3-yloxy)-3,5-difluorophenyl)-5-ethyl-2-(1H-pyrazol-1-yl)oxazole-4-carboxamide]: under setting [1], the EC50 is 1000 to 10000 nM.
Turning to `O=C(Nc1ccc(OC2CC3C(C2)C3(F)F)c(F)c1)c1nc(N2CCCC2)oc1CC(F)(F)F` (stereo not shown) [Example 46, N-[4-({6,6-difluorobicyclo[3.1.0]hexan-3-yl}oxy)-3-fluorophenyl]-2-(pyrrolidin-1-yl)-5-(2,2,2-trifluoroethyl)oxazole-4-carboxamide], the EC50 under setting [1] was 1000 to 10000 nM.
Take `O=C(Nc1ccc(OC2CCCC2)c(F)c1)c1nc(N2CCC3(CC3)C2)oc1CC(F)(F)F` [Example 57, N-(4-(cyclopentyloxy)-3-fluorophenyl)-2-(5-azaspiro[2.4]heptan-5-yl)-5-(2,2,2-trifluoroethyl)oxazole-4-carboxamide]: the EC50 under setting [1] is 1000 to 10000 nM.
As for `CCC1(CC)CN(c2nc(C(=O)Nc3ccc(OC4CCCOC4)c(F)c3)c(CC(F)(F)F)o2)C1` (stereo not shown) [Example 158, 2-(3,3-diethylazetidin-1-yl)-N-(3-fluoro-4-((tetrahydro-2H-pyran-3-yl)oxy)phenyl)-5-(2,2,2-trifluoroethyl)oxazole-4-carboxamide], the EC50 under setting [1] was 10 to 1000 nM.
As for `O=C(Nc1cc(F)c(O[C@@H]2C[C@@H]3C[C@@H]3C2)c(F)c1)c1nc(N2CCCC2)oc1CN1CCC1` [Example 306, 5-(azetidin-1-ylmethyl)-N-(4-(cis-bicyclo[3.1.0]hexan-3-yloxy)-3,5-difluorophenyl)-2-(pyrrolidin-1-yl)oxazole-4-carboxamide], under setting [1], the EC50 was 1000 to 10000 nM.
Regarding `CCC1(CC)CN(c2nc(C(=O)Nc3cc(F)c(O[C@@H]4C[C@@H]5C[C@@H]5C4)c(F)c3)c(C)o2)C1` [Example 273, N-(4-(cis-bicyclo[3.1.0]hexan-3-yloxy)-3,5-difluorophenyl)-2-(3,3-diethylazetidin-1-yl)-5-methyloxazole-4-carboxamide], under setting [1], the EC50 is 10 to 1000 nM.
Consider `CCC1(CC)CN(c2nc(C(=O)Nc3cc(C)c(NC4CC5CC(C5)C4)c(F)c3)c(CCF)o2)C1` (stereo not shown) [Example 292, N-(4-(bicyclo[3.1.1]heptan-3-ylamino)-3-fluoro-5-methylphenyl)-2-(3,3-diethylazetidin-1-yl)-5-(2-fluoroethyl)oxazole-4-carboxamide], for which the EC50 under setting [1] is 1000 to 10000 nM.
Consider `CC1(C)CN(c2nc(C(=O)Nc3cc(F)c(OC4COCC4(F)F)c(F)c3)c(CC(F)(F)F)o2)C1` (stereo not shown) [Example 70, N-{4-[(4,4-difluorotetrahydrofuran-3-yl)oxy]-3,5-difluorophenyl}-2-(3,3-dimethylazetidin-1-yl)-5-(2,2,2-trifluoroethyl)oxazole-4-carboxamide], for which the EC50 under setting [1] is 10 to 1000 nM.
On to `O=C(Nc1cc(F)c(N2CC3CC(C3)C2)c(F)c1)c1nc(N2CCCC2)oc1CC(F)(F)F` [Example 209, N-(4-(3-azabicyclo[3.1.1]heptan-3-yl)-3,5-difluorophenyl)-2-(pyrrolidin-1-yl)-5-(2,2,2-trifluoroethyl)oxazole-4-carboxamide], for which the EC50 was in the range of 10 to 1000 nM.
With `CCc1oc(N2CC3CCOC3C2)nc1C(=O)Nc1cc(F)c(OC2CC3C[C@H]3C2)c(F)c1` (stereo partly drawn) [Example 233, N-(4-(cis-bicyclo[3.1.0]hexan-3-yloxy)-3,5-difluorophenyl)-5-ethyl-2-(hexahydro-5H-furo[2,3-c]pyrrol-5-yl)oxazole-4-carboxamide], the EC50 under setting [1] is 1000 to 10000 nM.
As for `CCC1(OC)CN(c2nc(C(=O)Nc3cc(O)c(OC4CC5CC(C5)C4)c(F)c3)c(CC(F)(F)F)o2)C1` (stereo not shown) [Example 266, N-(4-(bicyclo[3.1.1]heptan-3-yloxy)-3-fluoro-5-hydroxyphenyl)-2-(3-ethyl-3-methoxyazetidin-1-yl)-5-(2,2,2-trifluoroethyl)oxazole-4-carboxamide], under setting [1], the EC50 was 1000 to 10000 nM.
On to `CC(CC(F)(F)F)Oc1ccc(NC(=O)c2nc(N3CCCC3)oc2CC(F)(F)F)cc1F` (stereo not shown) [Example 60, N-(3-fluoro-4-((4,4,4-trifluorobutan-2-yl)oxy)phenyl)-2-(pyrrolidin-1-yl)-5-(2,2,2-trifluoroethyl) oxazole-4-carboxamide], for which the EC50 under setting [1] was 1000 to 10000 nM.
As for `O=C(Nc1cc(F)c(N2CCC3CCCC32)c(F)c1)c1nc(N2CCCC2)oc1CC(F)(F)F` (stereo not shown) [Example 214, N-(3,5-difluoro-4-(hexahydrocyclopenta[b]pyrrol-1(2H)-yl)phenyl)-2-(pyrrolidin-1-yl)-5-(2,2,2-trifluoroethyl)oxazole-4-carboxamide], the EC50 under setting [1] was 10 to 1000 nM.
The same measure, in the same setting: to `CCC1(OC)CN(c2nc(C(=O)Nc3cc(F)c(N4CCC5CC5C4)c(F)c3)c(CC(F)(F)F)o2)C1` (stereo not shown) [Example 204, N-(4-(3-azabicyclo[4.1.0]heptan-3-yl)-3,5-difluorophenyl)-2-(3-ethyl-3-methoxyazetidin-1-yl)-5-(2,2,2-trifluoroethyl)oxazole-4-carboxamide] belongs 10 to 1000 nM; to `O=C(Nc1ccc(N2CCCCC2)c(F)c1)c1nc(N2CCC3(CC2)CS(=O)(=O)C3)oc1CC(F)(F)F` [Example 25, 2-(2,2-dioxo-2-thia-7-azaspiro[3.5]nonan-7-yl)-N-[3-fluoro-4-(piperidin-1-yl)phenyl]-5-(2,2,2-trifluoroethyl) oxazole-4-carboxamide], 10000 to 100000 nM.
For `CCC1(CC)CN(c2nc(C(=O)Nc3ccc(O[C@@H]4C[C@@H]5C[C@@H]5C4)c(O)c3)c(CC(F)(F)F)o2)C1` [Example 270, N-(4-(cis-bicyclo[3.1.0]hexan-3-yloxy)-3-hydroxyphenyl)-2-(3,3-diethylazetidin-1-yl)-5-(2,2,2-trifluoroethyl)oxazole-4-carboxamide], the EC50 under setting [1] is 1000 to 10000 nM.
For the compound `O=C(Nc1cc(F)c(O[C@@H]2C[C@@H]3C[C@@H]3C2)c(F)c1)c1nc(N2Cc3conc3C2)oc1CC(F)(F)F` [Example 166, N-(4-(cis-bicyclo[3.1.0]hexan-3-yloxy)-3,5-difluorophenyl)-2-(4H-pyrrolo[3,4-c]isoxazol-5(6H)-yl)-5-(2,2,2-trifluoroethyl)oxazole-4-carboxamide], the EC50 under setting [1] is 10 to 1000 nM.
In the case of `COCC1(COC)CN(c2nc(C(=O)Nc3cc(F)c(O[C@@H]4C[C@@H]5C[C@@H]5C4)c(F)c3)c(CC(F)(F)F)o2)C1` [Example 168, N-(4-(cis-bicyclo[3.1.0]hexan-3-yloxy)-3,5-difluorophenyl)-2-(3,3-bis(methoxymethyl)azetidin-1-yl)-5-(2,2,2-trifluoroethyl)oxazole-4-carboxamide], under setting [1], the EC50 is 10 to 1000 nM.
As for `CCC1(OC)CN(c2nc(C(=O)Nc3cc(C)c(N4C5CCCC4CC5)c(F)c3)c(CCF)o2)C1` [Example 291, N-(4-(8-azabicyclo[3.2.1]octan-8-yl)-3-fluoro-5-methylphenyl)-2-(3-ethyl-3-methoxyazetidin-1-yl)-5-(2-fluoroethyl)oxazole-4-carboxamide], the EC50 was 10 to 1000 nM.
Consider `CCc1oc(N2CCCC2)nc1C(=O)Nc1cc(C)c(NC2CC3CC(C3)C2)c(F)c1` (stereo not shown) [Example 252, N-(4-(bicyclo[3.1.1]heptan-3-ylamino)-3-fluoro-5-methylphenyl)-5-ethyl-2-(pyrrolidin-1-yl)oxazole-4-carboxamide], for which the EC50 under setting [1] was 1000 to 10000 nM.
Regarding `O=C(Nc1ccc(OC2CCCOC2)c(F)c1)c1nc(N2CCCC2)oc1CC(F)(F)F` (stereo not shown) [Example 66, N-[3-fluoro-4-(oxan-3-yloxy)phenyl]-2-(pyrrolidin-1-yl)-5-(2,2,2-trifluoroethyl)oxazole-4-carboxamide], under setting [1], the EC50 was 1000 to 10000 nM.
The same measure, in the same setting: to `CCc1oc(N2CC(CC)(OC)C2)nc1C(=O)Nc1cc(F)c(O[C@@H]2C[C@@H]3C[C@@H]3C2)cc1F` [Example 251, N-(4-(cis-bicyclo[3.1.0]hexan-3-yloxy)-2,5-difluorophenyl)-5-ethyl-2-(3-ethyl-3-methoxyazetidin-1-yl)oxazole-4-carboxamide] belongs 1000 to 10000 nM; to `Cc1oc(N2CC3(C2)CC(F)(F)C3)nc1C(=O)Nc1ccc(N2CCCCC2)c(F)c1` [Example 89, 2-(6,6-difluoro-2-azaspiro[3.3]heptan-2-yl)-N-(3-fluoro-4-(piperidin-1-yl)phenyl)-5-methyloxazole-4-carboxamide], 1000 to 10000 nM.
Turning to `CCC1(CC)CN(c2nc(C(=O)Nc3cnc(OC4CC5C[C@H]5C4)c(F)c3)c(CC(F)(F)F)o2)C1` (stereo partly drawn) [Example 191, N-(6-(cis-bicyclo[3.1.0]hexan-3-yloxy)-5-fluoropyridin-3-yl)-2-(3,3-diethylazetidin-1-yl)-5-(2,2,2-trifluoroethyl)oxazole-4-carboxamide], the EC50 under setting [1] is 1000 to 10000 nM.
For the compound `O=C(Nc1ccc(OC2CCOCC2)c(F)c1)c1nc(N2CCCC2)oc1CC(F)(F)F` [Example 56, N-[3-fluoro-4-(oxan-4-yloxy)phenyl]-2-(pyrrolidin-1-yl)-5-(2,2,2-trifluoroethyl)oxazole-4-carboxamide], the EC50 under setting [1] is 1000 to 10000 nM.
For `COC1(C)CN(c2nc(C(=O)Nc3ccc(O[C@@H]4C[C@@H]5C[C@@H]5C4)c(C#N)c3)c(CC(F)(F)F)o2)C1` [Example 146, N-(4-(cis-bicyclo[3.1.0]hexan-3-yloxy)-3-cyanophenyl)-2-(3-methoxy-3-methylazetidin-1-yl)-5-(2,2,2-trifluoroethyl)oxazole-4-carboxamide], under setting [1], the EC50 was 1000 to 10000 nM.
With `COC1CCC(Oc2ccc(NC(=O)c3nc(N4CCCC4)oc3CC(F)(F)F)cc2F)C1` (stereo not shown) [Example 43, N-{3-fluoro-4-[(3-methoxycyclopentyl)oxy]phenyl}-2-(pyrrolidin-1-yl)-5-(2,2,2-trifluoroethyl)oxazole-4-carboxamide], the EC50 under setting [1] is 1000 to 10000 nM.
For the compound `O=C(Nc1cc(F)c(N2CCC3OCCC32)c(F)c1)c1nc(N2CCCC2)oc1CC(F)(F)F` (stereo not shown) [Example 198, N-(3,5-difluoro-4-(hexahydro-4H-furo[3,2-b]pyrrol-4-yl)phenyl)-2-(pyrrolidin-1-yl)-5-(2,2,2-trifluoroethyl)oxazole-4-carboxamide], the EC50 under setting [1] is 1000 to 10000 nM.
